Measured values taken from PMC9948168, “Vanillin-Based Indolin-2-one Derivative Bearing a Pyridyl Moiety as a Promising Anti-Breast Cancer Agent via Anti-Estrogenic Activity” (ACS Omega, 2023).

Key:
Test in all cases: NCI-60 one-dose screening
Type in all cases: cell-based
CCRF-CEM = settings: Homo sapiens, Leukemias, read-out: GI (%)
Method: (§1) Compounds 5a–c and 6a–o were tested using standard NCI protocols for in vitro activity at the National Cancer Institute (NCI, Bethesda, Maryland, USA), wherein compounds were tested using one single concentration of 10 μM against 60 cell lines of nine different cancer types. […] Excellent activity was observed against a single NSCLC cell line, EKVX, for compounds 5a–c (GIs = 77–86%, Table 1) with no observed activity for indoles with substituted vanillin 6a–o.
(§2) Anticancer activity was tested against 60 cancer cell lines at the NCI, Bethesda, USA. The screening process was done with a single dosage of 10 μM according to NCI protocols published on the NCI website https://dtp.cancer.gov/discovery_development/nci-60/methodology.htm.

DU-145 = settings: Homo sapiens, DU-145, Prostate Cancer, read-out: GI (%)
Method: as §1, §2

EKVX = settings: Homo sapiens, Non-Small Cell Lung Cancer, read-out: GI (%)
Method: as §1, §2

HCC-2998 = settings: Homo sapiens, HCC-2998, Colon Cancer, read-out: GI (%)
Method: as §1, §2

HCT-15 = settings: Homo sapiens, HCT-15, Colon Cancer, read-out: GI (%)
Method: as §1, §2

HL-60(TB) = settings: Homo sapiens, Leukemias, read-out: GI (%)
Method: as §1, §2

HS 578T = settings: Homo sapiens, Breast Cancer, read-out: GI (%)
Method: as §1, §2

IGROV1 = settings: Homo sapiens, IGROV-1, IGROV1, Ovarian Cancer, read-out: GI (%)
Method: as §1, §2

K-562 = settings: Homo sapiens, K562, K-562, Leukemias, read-out: GI (%)
Method: as §1, §2

KM12 = settings: Homo sapiens, KM12, Colon Cancer, read-out: GI (%)
Method: as §1, §2

LOX IMVI = settings: Homo sapiens, Melanoma, read-out: GI (%)
Method: as §1, §2

MALME-3M = settings: Homo sapiens, Melanoma, read-out: GI (%)
Method: as §1, §2

MCF7 = settings: Homo sapiens, MCF7, 10 μM; MCF7, Breast Cancer; read-out: GI (%)
Method: as §1, §2

MDA-MB-435 = settings: Homo sapiens, MDA-MB-435, Melanoma, read-out: GI (%)
Method: as §1, §2

MDA-MB-468 = settings: Homo sapiens, MDA-MB-468, Breast Cancer, read-out: GI (%)
Method: as §1, §2

MOLT-4 = settings: Homo sapiens, MOLT-4, Leukemias, read-out: GI (%)
Method: as §1, §2

NCI-H226 = settings: Homo sapiens, NCI-H226, Non-Small Cell Lung Cancer, read-out: GI (%)
Method: as §1, §2

NCI-H23 = settings: Homo sapiens, NCI-H23, Non-Small Cell Lung Cancer, read-out: GI (%)
Method: as §1, §2

NCI-H460 = settings: Homo sapiens, NCI-H460, Non-Small Cell Lung Cancer, read-out: GI (%)
Method: as §1, §2

NCI-H522 = settings: Homo sapiens, NCI-H522, Non-Small Cell Lung Cancer, read-out: GI (%)
Method: as §1, §2

NCI/ADR-RES = settings: Homo sapiens, Ovarian Cancer, read-out: GI (%)
Method: as §1, §2

OVCAR-3 = settings: Homo sapiens, OVCAR-3, 10 μM; OVCAR-3, Ovarian Cancer; read-out: GI (%)
Method: as §1, §2

OVCAR-5 = settings: Homo sapiens, OVCAR-5, Ovarian Cancer, read-out: GI (%)
Method: as §1, §2

OVCAR-8 = settings: Homo sapiens, OVCAR-8, Ovarian Cancer, read-out: GI (%)
Method: as §1, §2

PC-3 = settings: Homo sapiens, PC-3, Prostate Cancer, read-out: GI (%)
Method: as §1, §2

RPMI-8226 = settings: Homo sapiens, RPMI-8226, Leukemias, read-out: GI (%)
Method: as §1, §2

SF-268 = settings: Homo sapiens, SF-268, CNS Cancer, read-out: GI (%)
Method: as §1, §2

SK-MEL-28 = settings: Homo sapiens, SK-MEL-28, Melanoma, read-out: GI (%)
Method: as §1, §2

SK-MEL-5 = settings: Homo sapiens, SK-MEL-5, Melanoma, read-out: GI (%)
Method: as §1, §2

SN12C = settings: Homo sapiens, Renal Cancer, read-out: GI (%)
Method: as §1, §2

SNB-19 = settings: Homo sapiens, SNB-19, CNS Cancer, read-out: GI (%)
Method: as §1, §2

TK-10 = settings: Homo sapiens, TK-10, Renal Cancer, read-out: GI (%)
Method: as §1, §2

U251 = settings: Homo sapiens, U-251, U251, CNS Cancer, read-out: GI (%)
Method: as §1, §2

UACC-257 = settings: Homo sapiens, UACC-257, Melanoma, read-out: GI (%)
Method: as §1, §2

UO-31 = settings: Homo sapiens, UO-31, Renal Cancer, read-out: GI (%)
Method: as §1, §2

COc1cc(/C=C2/C(=O)Nc3ccccc32)ccc1OCc1ccc(Cl)cc1 [6b]
inhibition at 10 µM (CCRF-CEM): 5.07% | inhibition at 10 µM (DU-145): 1.33% | inhibition at 10 µM (EKVX): 4.66% | inhibition at 10 µM (HCC-2998): -23.5% | inhibition at 10 µM (HCT-15): 6.05% | inhibition at 10 µM (HL-60(TB)): -13.4% | inhibition at 10 µM (HS 578T): -4.77% | inhibition at 10 µM (IGROV1): -2.14% | inhibition at 10 µM (K-562): 1.45% | inhibition at 10 µM (KM12): 0.38% | inhibition at 10 µM (LOX IMVI): 0.22% | inhibition at 10 µM (MALME-3M): 4.51% | inhibition at 10 µM (MCF7): 30.5% | inhibition at 10 µM (MDA-MB-435): -6.4% | inhibition at 10 µM (MDA-MB-468): -1.64% | inhibition at 10 µM (MOLT-4): 6.07% | inhibition at 10 µM (NCI-H226): 3.35% | inhibition at 10 µM (NCI-H23): 6.66% | inhibition at 10 µM (NCI-H460): 58.9% | inhibition at 10 µM (NCI-H522): 4.25% | inhibition at 10 µM (NCI/ADR-RES): -0.22% | inhibition at 10 µM (OVCAR-3): -5.51% | inhibition at 10 µM (OVCAR-5): -0.58% | inhibition at 10 µM (OVCAR-8): -1.64% | inhibition at 10 µM (PC-3): 5.22% | inhibition at 10 µM (RPMI-8226): 2.49% | inhibition at 10 µM (SF-268): 1.43% | inhibition at 10 µM (SK-MEL-28): 7.06% | inhibition at 10 µM (SK-MEL-5): -2.87% | inhibition at 10 µM (SN12C): -2.93% | inhibition at 10 µM (SNB-19): 2.91% | inhibition at 10 µM (TK-10): -35.9% | inhibition at 10 µM (U251): -7% | inhibition at 10 µM (UACC-257): -24.7% | inhibition at 10 µM (UO-31): 18.7%

COc1cc(C=C2C(=O)Nc3ccccc32)ccc1O (mixture of isomers) [5a]
inhibition at 10 µM (CCRF-CEM): 10.2% | inhibition at 10 µM (DU-145): 11.2% | inhibition at 10 µM (EKVX): 82.6% | inhibition at 10 µM (HCC-2998): -15% | inhibition at 10 µM (HCT-15): 25.7% | inhibition at 10 µM (HL-60(TB)): 15.1% | inhibition at 10 µM (HS 578T): 47.9% | inhibition at 10 µM (IGROV1): 25.6% | inhibition at 10 µM (K-562): 9.79% | inhibition at 10 µM (KM12): 9.4% | inhibition at 10 µM (LOX IMVI): 28.6% | inhibition at 10 µM (MALME-3M): 7.51% | inhibition at 10 µM (MCF7): 44.8% | inhibition at 10 µM (MDA-MB-435): 18.5% | inhibition at 10 µM (MDA-MB-468): 32.7% | inhibition at 10 µM (MOLT-4): 10.4% | inhibition at 10 µM (NCI-H226): -2.09% | inhibition at 10 µM (NCI-H23): 16% | inhibition at 10 µM (NCI-H460): 8.35% | inhibition at 10 µM (NCI-H522): 27.4% | inhibition at 10 µM (NCI/ADR-RES): 8.73% | inhibition at 10 µM (OVCAR-3): 19.4% | inhibition at 10 µM (OVCAR-5): -2.51% | inhibition at 10 µM (OVCAR-8): 15.5% | inhibition at 10 µM (PC-3): 15.6% | inhibition at 10 µM (RPMI-8226): 10.8% | inhibition at 10 µM (SF-268): 14.7% | inhibition at 10 µM (SK-MEL-28): 6.91% | inhibition at 10 µM (SK-MEL-5): 17.3% | inhibition at 10 µM (SN12C): 16% | inhibition at 10 µM (SNB-19): 6.94% | inhibition at 10 µM (TK-10): -90.5% | inhibition at 10 µM (U251): 22.2% | inhibition at 10 µM (UACC-257): 11.3% | inhibition at 10 µM (UO-31): 47.7%
